Here are results for five molecules from US20200339625A1, “NOVEL RADIOMETAL-BINDING COMPOUNDS FOR DIAGNOSIS OR TREATMENT OF PROSTATE SPECIFIC MEMBRANE ANTIGEN-EXPRESSING CANCER” (PROVINCIAL HEALTH SERVICES AUTHORITY, priority 2017, published 2020).

Data set [1] has as its target T1, PSMA on LNCaP cells (Homo sapiens, UniProt Q04609).
T1 construct: endogenous in cells; host or cells: LNCaP prostate cancer cells
The experiment in a line: In vitro competition binding assay (displacement of 18F-DCFPyL). The settings on record: for Ki: inhibition of 18F-DCFPyL binding to PSMA on LNCaP cells, n=3. Here is the method:
1.14 In Vitro Competition Binding Assay
In vitro competition binding assays were conducted as previously reported using LNCaP prostate cancer cells and ^18F-DCFPyL as the radioligand. ^18 Briefly, LNCaP cells (400,000/well) were plated onto a 24-well poly-D-lysine coated plate for 48 h. Growth media was removed and replaced with HEPES buffered saline (50 mM HEPES, pH 7.5, 0.9% sodium chloride) and the cells were incubated for 1 h at 37° C. ^18F-DCFPyL (0.1 nM) was added to each well (in triplicate) containing various concentrations ([…]) of tested compounds (Lu-PSMA-617 or Lu-HTK01169). Non-specific binding was determined in the presence of 10 μM non-radiolabeled DCFPyL. The assay mixtures were further incubated for 1 h at 37° C. with gentle agitation. Then, the buffer and hot ligand were removed, and cells were washed twice with cold HEPES buffered saline. To harvest the cells, 400 μL of 0.25% trypsin solution was added to each well. Radioactivity was measured on a PerkinElmer (Waltham, Mass.) Wizard2 2480 automatic gamma counter. Nonlinear regression analyses and Ki calculations were performed using the GraphPad Prism 7 software.
In general terms: Loss of bound radioactivity is the signal in a displacement assay; it reports binding, not function.

For data set [2], the system named is mice bearing LNCaP tumor xenografts. The experiment in a line: PET/CT imaging of 68Ga-labeled compounds. The settings on record: for change of tumor uptake from 1 h to 3 h post-injection: PET/CT images; for blood retention (qualitative): PET/CT images at 1 h and 3 h post-injection, comparison within the figure. It is filed as in vivo. In a few lines:
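Male NOD SCID IL2Rγ KO mice bore subcutaneous LNCaP xenografts (1×10^7 cells, tumours 5-8 mm) and received 6-8 MBq tracer via tail vein under 2% isoflurane. At 50 min p.i., a 10-min CT and a 10-min static PET were acquired. For the 3 h time point, scanning began at 170 min p.i. with a 15-min static PET.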

Data set [3] concerns mice bearing PSMA-expressing LNCAP cancer xenografts. The experiment in a line: Biodistribution of 68Ga-labeled compounds. The class given is in vivo. In a few lines: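 NOD-SCID IL2RγKO male mice carried subcutaneous LNCaP xenografts grown to 5-8 mm over 5-6 weeks. Organs and blood were collected at 1 or 3 h after injection of the radiotracer and gamma-counted. Uptake was normalized to injected dose via a standard curve and expressed as %ID/g.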

Data set [4] has as its system metastatic prostate cancer. The settings on record: advanced metastatic prostate cancer patients; cited from earlier work.

Molecules are shown by their SMILES.

In general, Ki refers to the equilibrium dissociation constant of an inhibitor or competing ligand from its target. Read a low Ki as tighter binding.

T1 sequence (Q04609 whole entry): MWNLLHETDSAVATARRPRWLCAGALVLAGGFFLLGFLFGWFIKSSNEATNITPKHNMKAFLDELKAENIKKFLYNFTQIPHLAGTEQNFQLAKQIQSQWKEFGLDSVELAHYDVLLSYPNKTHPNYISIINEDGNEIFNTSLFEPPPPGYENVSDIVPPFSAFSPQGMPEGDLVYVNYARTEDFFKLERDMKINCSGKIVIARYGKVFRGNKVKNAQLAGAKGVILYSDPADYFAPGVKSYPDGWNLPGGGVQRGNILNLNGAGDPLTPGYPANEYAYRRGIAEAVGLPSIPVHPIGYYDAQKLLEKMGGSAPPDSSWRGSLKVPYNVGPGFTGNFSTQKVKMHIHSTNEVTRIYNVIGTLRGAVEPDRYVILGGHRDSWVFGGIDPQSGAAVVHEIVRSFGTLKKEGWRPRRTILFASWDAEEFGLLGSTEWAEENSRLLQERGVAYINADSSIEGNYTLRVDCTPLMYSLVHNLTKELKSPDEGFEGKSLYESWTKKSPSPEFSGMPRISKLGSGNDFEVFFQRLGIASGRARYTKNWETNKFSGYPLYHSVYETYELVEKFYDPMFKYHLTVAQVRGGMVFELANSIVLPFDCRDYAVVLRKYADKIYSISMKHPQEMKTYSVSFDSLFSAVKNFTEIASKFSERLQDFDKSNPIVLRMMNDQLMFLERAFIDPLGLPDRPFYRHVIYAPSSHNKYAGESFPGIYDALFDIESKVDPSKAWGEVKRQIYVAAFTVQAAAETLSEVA

Molecule `O=C([O-])CN1CCN(CC(=O)[O-])CCN(CC(=O)NCCCC[C@H](NC(=O)[C@H](CCC(=O)O)NC(=O)CCCc2ccc(I)cc2)C(=O)NC[C@H]2CC[C@H](C(=O)N[C@@H](Cc3ccc4ccccc4c3)C(=O)NCCCC[C@H](NC(=O)N[C@@H](CCC(=O)O)C(=O)O)C(=O)O)CC2)CCN(CC(=O)[O-])CC1.[Lu+3]` [Lu-HTK01169] showed a Ki in data set [1] of 0.04 ± 0.01 nM. Also, in data set [1] (ratio of Ki values), the “improvement in PSMA binding compared to Lu-PSMA-617” value was determined as 6 fold.
`O=C([O-])CN1CCN(CC(=O)[O-])CCN(CC(=O)NCC2CCC(C(=O)N[C@@H](Cc3ccc4ccccc4c3)C(=O)NCCCC[C@H](NC(=O)N[C@@H](CCC(=O)O)C(=O)O)C(=O)O)CC2)CCN(CC(=O)[O-])CC1.[Lu+3]` (some centres unmarked) [Lu-PSMA-617, reference compound] returned a Ki in data set [1] of 0.24 ± 0.06 nM.
As for `O=C([O-])CN1CCN(CC(=O)[O-])CCN(CC(=O)NCCCC[C@H](NC(=O)CNC(=O)CCCc2ccc([N+](=O)[O-])cc2)C(=O)NC[C@H]2CC[C@H](C(=O)N[C@@H](Cc3ccc4ccccc4c3)C(=O)NCCCC[C@H](NC(=O)N[C@@H](CCC(=O)O)C(=O)O)C(=O)O)CC2)CCN(CC(=O)[O-])CC1.[68Ga+3]` [^68Ga-HTK03089], in data set [2], the “change of tumor uptake from 1 h to 3 h post-injection” value is “increases over time” and the “blood retention (qualitative)” value is “significantly higher blood retention”. In data set [3] (1 h post-injection), this molecule came in with an Adrenal glands uptake of 4.57 ± 1.06 % ID/g, a Blood uptake of 6.69 ± 0.27 % ID/g, a Bone uptake of 0.41 ± 0.08 % ID/g and a Brain uptake of 0.09 ± 0.01 % ID/g. Besides, in data set [3] (1 h post-injection), the Fat uptake came to 2.14 ± 0.29 % ID/g, the Heart uptake was 1.73 ± 0.14 % ID/g, the Intestine uptake was found to be 0.76 ± 0.05 % ID/g and the Kidneys uptake was 91.1 ± 7.42 % ID/g. In data set [3] (1 h post-injection), this molecule gave a Lacrimal uptake of 0.05 ± 0.03 % ID/g, a Liver uptake of 1.33 ± 0.27 % ID/g, a Lungs uptake of 4.68 ± 0.35 % ID/g and a Muscle uptake of 0.79 ± 0.06 % ID/g. In data set [3] (1 h post-injection), this molecule yielded a Pancreas uptake of 1.00 ± 0.07 % ID/g, a Salivary uptake of 3.95 ± 0.32 % ID/g, a Seminal uptake of 0.66 ± 0.24 % ID/g and a Spleen uptake of 8.56 ± 3.07 % ID/g. Also, in data set [3] (1 h post-injection), the Stomach uptake stood at 0.34 ± 0.07 % ID/g, the Tail uptake is 2.54 ± 0.33 % ID/g, the Testes uptake amounted to 1.35 ± 0.14 % ID/g and the Thyroid uptake is 2.32 ± 0.10 % ID/g. In addition, in data set [3] (1 h post-injection), the Tumor uptake came to 21.7 ± 2.48 % ID/g, the “Tumor:Blood ratio” value is 3.25 ± 0.43, the “Tumor:Muscle ratio” value is 27.4 ± 4.01 and the Urine uptake amounted to 47.9 ± 46.6 % ID/g. Further, in data set [3] (3 h post-injection), the Adrenal glands uptake came to 2.76 ± 0.44 % ID/g, the Blood uptake amounted to 2.52 ± 0.69 % ID/g, the Bone uptake was determined as 0.15 ± 0.05 % ID/g and the Brain uptake was 0.04 ± 0.02 % ID/g. Besides, in data set [3] (3 h post-injection), the Fat uptake turned out to be 1.28 ± 0.25 % ID/g, the Heart uptake was found to be 0.68 ± 0.16 % ID/g, the Intestine uptake is on record as 0.45 ± 0.10 % ID/g and the Kidneys uptake amounted to 96.4 ± 21.9 % ID/g. In data set [3] (3 h post-injection), this molecule displayed a Lacrimal uptake of 0.00 ± 0.00 % ID/g, a Liver uptake of 0.73 ± 0.41 % ID/g, a Lungs uptake of 2.14 ± 0.42 % ID/g and a Muscle uptake of 0.29 ± 0.04 % ID/g. Moreover, in data set [3] (3 h post-injection), the Pancreas uptake is reported as 0.47 ± 0.07 % ID/g, the Salivary uptake is recorded as 1.45 ± 0.33 % ID/g, the Seminal uptake was found to be 0.24 ± 0.05 % ID/g and the Spleen uptake was determined as 2.56 ± 0.89 % ID/g. In data set [3] (3 h post-injection), the Stomach uptake is recorded as 0.19 ± 0.04 % ID/g, the Tail uptake amounted to 1.01 ± 0.23 % ID/g, the Testes uptake came to 0.73 ± 0.16 % ID/g and the Thyroid uptake is reported as 0.98 ± 0.25 % ID/g. Also, in data set [3] (3 h post-injection), the Tumor uptake was found to be 31.2 ± 2.11 % ID/g, the “Tumor:Blood ratio” value was determined as 13.1 ± 3.76, the “Tumor:Muscle ratio” value is 108 ± 13.6 and the Urine uptake was determined as 88.5 ± 45.6 % ID/g.
Take `Cc1ccc(CCCC(=O)NCC(=O)N[C@@H](CCCCNC(=O)CN2CCN(CC(=O)[O-])CCN(CC(=O)[O-])CCN(CC(=O)[O-])CC2)C(=O)NC[C@H]2CC[C@H](C(=O)N[C@@H](Cc3ccc4ccccc4c3)C(=O)NCCCC[C@H](NC(=O)N[C@@H](CCC(=O)O)C(=O)O)C(=O)O)CC2)cc1.[68Ga+3]` [^68Ga-HTK03090]: in data set [2], the “change of tumor uptake from 1 h to 3 h post-injection” value is on record as “increases over time” and the “blood retention (qualitative)” value is given as “significantly higher blood retention”. Also, in data set [3] (1 h post-injection), the Adrenal glands uptake is reported as 3.99 ± 1.94 % ID/g, the Blood uptake is reported as 16.8 ± 2.14 % ID/g, the Bone uptake is on record as 0.71 ± 0.10 % ID/g and the Brain uptake was determined as 0.20 ± 0.02 % ID/g. In data set [3] (1 h post-injection), this molecule came in with a Fat uptake of 1.87 ± 0.80 % ID/g, a Heart uptake of 3.95 ± 0.72 % ID/g, an Intestine uptake of 1.14 ± 0.13 % ID/g and a Kidneys uptake of 24.3 ± 3.03 % ID/g. Further, in data set [3] (1 h post-injection), the Lacrimal uptake turned out to be 0.16 ± 0.07 % ID/g, the Liver uptake is 3.37 ± 0.85 % ID/g, the Lungs uptake is recorded as 7.68 ± 1.33 % ID/g and the Muscle uptake is given as 1.23 ± 0.15 % ID/g. In data set [3] (1 h post-injection), this molecule returned a Pancreas uptake of 1.36 ± 0.22 % ID/g, a Salivary uptake of 2.48 ± 0.36 % ID/g, a Seminal uptake of 0.90 ± 0.15 % ID/g and a Spleen uptake of 2.00 ± 0.34 % ID/g. In data set [3] (1 h post-injection), this molecule showed a Stomach uptake of 0.59 ± 0.13 % ID/g, a Tail uptake of 3.77 ± 0.91 % ID/g, a Testes uptake of 1.95 ± 0.20 % ID/g and a Thyroid uptake of 3.36 ± 0.24 % ID/g. For the same molecule, in data set [3] (1 h post-injection), the Tumor uptake is 8.54 ± 0.74 % ID/g, the “Tumor:Blood ratio” value turned out to be 0.52 ± 0.10, the “Tumor:Muscle ratio” value is given as 7.09 ± 1.37 and the Urine uptake came out at 21.5 ± 9.93 % ID/g. In data set [3] (3 h post-injection), this molecule registered an Adrenal glands uptake of 2.89 ± 0.28 % ID/g, a Blood uptake of 13.6 ± 1.23 % ID/g, a Bone uptake of 0.64 ± 0.03 % ID/g and a Brain uptake of 0.16 ± 0.02 % ID/g. Besides, in data set [3] (3 h post-injection), the Fat uptake worked out at 1.30 ± 0.13 % ID/g, the Heart uptake was 3.00 ± 0.41 % ID/g, the Intestine uptake worked out at 0.98 ± 0.16 % ID/g and the Kidneys uptake worked out at 30.0 ± 8.66 % ID/g. In data set [3] (3 h post-injection), this molecule registered a Lacrimal uptake of 0.10 ± 0.13 % ID/g, a Liver uptake of 2.73 ± 0.90 % ID/g, a Lungs uptake of 6.00 ± 0.88 % ID/g and a Muscle uptake of 1.04 ± 0.12 % ID/g. For the same molecule, in data set [3] (3 h post-injection), the Pancreas uptake came out at 1.27 ± 0.13 % ID/g, the Salivary uptake is 2.15 ± 0.37 % ID/g, the Seminal uptake is 0.89 ± 0.05 % ID/g and the Spleen uptake is listed as 1.93 ± 0.55 % ID/g. Also, in data set [3] (3 h post-injection), the Stomach uptake was 0.63 ± 0.12 % ID/g, the Tail uptake was found to be 3.75 ± 1.53 % ID/g, the Testes uptake stood at 2.08 ± 0.42 % ID/g and the Thyroid uptake amounted to 2.76 ± 0.21 % ID/g. In data set [3] (3 h post-injection), the Tumor uptake was found to be 16.9 ± 3.16 % ID/g, the “Tumor:Blood ratio” value amounted to 1.25 ± 0.32, the “Tumor:Muscle ratio” value is 16.6 ± 4.11 and the Urine uptake amounted to 53.9 ± 14.6 % ID/g.
On to `O=C([O-])CC[C@H](NC(=O)N[C@@H](CCCCNC(=O)[C@H](Cc1ccc2ccccc2c1)NC(=O)[C@H]1CC[C@H](CNC(=O)CN2CCN(CC(=O)[O-])CCN(CC(=O)[O-])CCN(CC(=O)[O-])CC2)CC1)C(=O)[O-])C(=O)[O-].[225Ac].[H+].[H+].[H+]` [^225Ac-PSMA-617], for which the response entry in data set [4] is recorded as “impressive responses”.
